According to paper PMC11127902, “Rescuing tri-heteromeric NMDA receptor function: the potential of pregnenolone-sulfate in loss-of-function GRIN2B variants” (Cellular and Molecular Life Sciences: CMLS, 2024):

Columns and labels:
[1] = target: Mixed di-heteromeric GluN2B-wt/GluN2B-G689C (Rattus norvegicus, UniProt P35439+Q00960, G689C); experiment: TEVC in Xenopus oocytes; conditions: 5 mM glutamate
Procedure: (§2) Two electrode voltage clamp (TEVC) recordings were carried out 24–72 h after mRNA injections, as previously described [17, 37]. We use a commercial amplifier (Warner Instruments, USA) and Digitizer (Digidata-1550B; Molecular Devices, USA), controlled by the pClamp10 software (Molecular Devices, USA). Electrode were made by pulling glass capillaries (Narishige, Japan) filled with 3 M KCl, into which we inserted chlorinated silver wires. […] For hERG channel recordings, oocytes were clamped at (− 60) mV for 1 s, followed by a voltage jump to 20 mV for 4 s, and an additional voltage jump to (− 50) mV for 6 s and return to baseline voltage (see Supplementary. 6f), as previously described [53].
(§3) When assessing potentiation by PS, all other solutions also included equal amounts of the DMSO carrier (0.2%).
Electrophysiology data were analyzed by Clampfit 11.2 (Molecular Devices, USA), plotted using GraphPad 8 or SigmaPlot 11(Systat software, Inc.). […] In all TEVC recordings in oocytes, the responses were normalized to current amplitude obtained from that individual cell. […] All data are shown as mean ± SEM. In all experiments N indicates the number of independent experiments, whereas n indicates the number of cells recorded. In each experiment, data underwent normality test prior to statistical assessment. Normally distributed data were assessed for significance by using paired t-test or one-way ANOVA for multiple group comparison and post hoc Tukey test or Dunnett's test. Similarly, in the case of non-normally distributed data significance was assessed by Mann Whitney test or Kruskal–Wallis ANOVA on ranks test followed by Dunn’s multiple comparison post hoc; n.s., non-significant; *p < 0.05; **p < 0.01; ***p < 0.001. […] Leak expression was evaluated by normalizing the maximal current (Imax) of each ER-retained NMDAR composition to Imax of control group (which was recorded in all experiments). Estimation of activation time constant (τ) for potentiated currents by PS, was performed by fitting PS- potentiated currents with a standard single-exponential function, from which we extracted the time constant (τ).

[2] = test system: non-tagged purely di-heteromeric GluN2B-G689S; conditions: purely variant di-heteromers, previous observations; cited from earlier work
[3] = target: T1, Tri-heteromeric GluN2A-wt/GluN2B-G689S (Rattus norvegicus, UniProt P35439+Q00959+Q00960, A876H/F846L/G689S/G856D/H848F/K857R/M851T/M860L/Q845K/V861L); type: cell-based; conditions: 5 mM glutamate
T1 construct: expressed in transfected cells; host or cells: Xenopus laevis oocytes, mRNA injection
Source text: (§1) Aliquots were thawed before each experiment.

[4] = target: T2, Tri-heteromeric GluN2A-wt/GluN2B-G689C (Rattus norvegicus, UniProt P35439+Q00959+Q00960, A876H/F846L/G689C/G856D/H848F/K857R/M851T/M860L/Q845K/V861L); type: cell-based; conditions: 5 mM glutamate
T2 construct: expressed in transfected cells; host or cells: Xenopus laevis oocytes, mRNA injection
Source text: as §1

[5] = target: Tri-heteromeric GluN2A-wt/GluN2B-wt (Rattus norvegicus, UniProt P35439+Q00959+Q00960, A876H/F846L/G856D/H848F/K857R/M851T/M860L/Q845K/V861L); experiment: TEVC in Xenopus oocytes; conditions: 5 mM glutamate
Procedure: as §2, §3
Electrophysiology data were analyzed by Clampfit 11.2 (Molecular Devices, USA), plotted using GraphPad 8 or SigmaPlot 11(Systat software, Inc.). […] In all TEVC recordings in oocytes, the responses were normalized to current amplitude obtained from that individual cell. […] All data are shown as mean ± SEM. In all experiments N indicates the number of independent experiments, whereas n indicates the number of cells recorded. In each experiment, data underwent normality test prior to statistical assessment. Normally distributed data were assessed for significance by using paired t-test or one-way ANOVA for multiple group comparison and post hoc Tukey test or Dunnett's test. Similarly, in the case of non-normally distributed data significance was assessed by Mann Whitney test or Kruskal–Wallis ANOVA on ranks test followed by Dunn’s multiple comparison post hoc; n.s., non-significant; *p < 0.05; **p < 0.01; ***p < 0.001. […] Leak expression was evaluated by normalizing the maximal current (Imax) of each ER-retained NMDAR composition to Imax of control group (which was recorded in all experiments). […]

[6] = target: T3, Mixed di-heteromeric GluN2B-wt/GluN2B-G689S (Rattus norvegicus, UniProt P35439+Q00960, G689S); experiment: TEVC in Xenopus oocytes; type: cell-based; conditions: 5 mM glutamate
T3 construct: expressed in transfected cells; host or cells: Xenopus laevis oocytes, mRNA injection
Source text: as §1

[7] = target: T4, Purely di-heteromeric GluN2B-wt (GluN1-1a-wt + GluN2B-wt-C1/C2) (Rattus norvegicus, UniProt P35439+Q00959+Q00960, A876H/F846L/G856D/H848F/K857R/M851T/M860L/Q845K/V861L); experiment: TEVC in Xenopus oocytes; type: cell-based; conditions: 5 mM glutamate
T4 construct: expressed in transfected cells; host or cells: Xenopus laevis oocytes, mRNA injection
T4 sequence (Q00960+Q00959 fused with the stated changes, other chains not shown): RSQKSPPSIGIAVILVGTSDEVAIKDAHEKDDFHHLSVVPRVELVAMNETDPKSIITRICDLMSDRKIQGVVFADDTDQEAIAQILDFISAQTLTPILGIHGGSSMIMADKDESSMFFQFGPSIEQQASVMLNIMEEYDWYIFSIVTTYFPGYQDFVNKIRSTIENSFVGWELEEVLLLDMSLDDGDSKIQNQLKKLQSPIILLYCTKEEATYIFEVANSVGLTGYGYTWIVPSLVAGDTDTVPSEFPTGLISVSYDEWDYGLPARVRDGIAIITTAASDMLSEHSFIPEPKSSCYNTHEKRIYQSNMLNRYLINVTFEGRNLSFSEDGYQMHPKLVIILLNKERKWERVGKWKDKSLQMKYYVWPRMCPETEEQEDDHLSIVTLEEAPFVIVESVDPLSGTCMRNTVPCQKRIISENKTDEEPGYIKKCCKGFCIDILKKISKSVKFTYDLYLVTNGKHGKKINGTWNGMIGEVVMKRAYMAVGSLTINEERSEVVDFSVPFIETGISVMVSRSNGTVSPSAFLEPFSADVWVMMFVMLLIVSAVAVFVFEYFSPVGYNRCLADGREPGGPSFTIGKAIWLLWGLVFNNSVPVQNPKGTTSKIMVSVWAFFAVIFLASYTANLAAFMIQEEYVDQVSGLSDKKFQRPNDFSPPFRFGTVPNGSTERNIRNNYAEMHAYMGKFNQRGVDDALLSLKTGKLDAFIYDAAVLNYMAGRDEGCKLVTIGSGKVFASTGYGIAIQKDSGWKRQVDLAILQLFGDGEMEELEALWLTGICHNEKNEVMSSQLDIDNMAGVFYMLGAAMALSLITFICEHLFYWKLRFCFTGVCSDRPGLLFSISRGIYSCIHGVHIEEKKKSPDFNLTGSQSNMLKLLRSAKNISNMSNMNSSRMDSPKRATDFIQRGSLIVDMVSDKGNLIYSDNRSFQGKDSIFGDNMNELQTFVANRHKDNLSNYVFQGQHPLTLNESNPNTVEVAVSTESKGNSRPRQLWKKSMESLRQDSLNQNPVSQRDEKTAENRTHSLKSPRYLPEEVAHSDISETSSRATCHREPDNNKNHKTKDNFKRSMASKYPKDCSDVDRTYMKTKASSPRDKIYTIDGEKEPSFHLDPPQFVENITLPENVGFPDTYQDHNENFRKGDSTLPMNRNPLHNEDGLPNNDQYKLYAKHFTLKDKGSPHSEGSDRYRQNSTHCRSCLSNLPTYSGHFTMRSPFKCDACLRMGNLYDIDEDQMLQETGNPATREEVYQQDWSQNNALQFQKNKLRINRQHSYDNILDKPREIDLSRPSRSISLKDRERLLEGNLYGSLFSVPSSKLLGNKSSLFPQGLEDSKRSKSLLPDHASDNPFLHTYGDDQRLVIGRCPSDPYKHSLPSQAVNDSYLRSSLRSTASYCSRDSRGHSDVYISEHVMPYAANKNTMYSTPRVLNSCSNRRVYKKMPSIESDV
Source text: as §1

[8] = target: T5, GluN2A-wt-containing tri-heteromeric receptors (GluN2B wt or variants) (Rattus norvegicus, UniProt P35439+Q00959+Q00960, A876H/F846L/G856D/H848F/K857R/M851T/M860L/Q845K/V861L); experiment: TEVC in Xenopus oocytes, all tri-heteromers; type: cell-based
T5 construct: expressed in transfected cells; host or cells: Xenopus laevis oocytes, mRNA injection
T5 sequence (Q00959 23-1464, other chains not shown): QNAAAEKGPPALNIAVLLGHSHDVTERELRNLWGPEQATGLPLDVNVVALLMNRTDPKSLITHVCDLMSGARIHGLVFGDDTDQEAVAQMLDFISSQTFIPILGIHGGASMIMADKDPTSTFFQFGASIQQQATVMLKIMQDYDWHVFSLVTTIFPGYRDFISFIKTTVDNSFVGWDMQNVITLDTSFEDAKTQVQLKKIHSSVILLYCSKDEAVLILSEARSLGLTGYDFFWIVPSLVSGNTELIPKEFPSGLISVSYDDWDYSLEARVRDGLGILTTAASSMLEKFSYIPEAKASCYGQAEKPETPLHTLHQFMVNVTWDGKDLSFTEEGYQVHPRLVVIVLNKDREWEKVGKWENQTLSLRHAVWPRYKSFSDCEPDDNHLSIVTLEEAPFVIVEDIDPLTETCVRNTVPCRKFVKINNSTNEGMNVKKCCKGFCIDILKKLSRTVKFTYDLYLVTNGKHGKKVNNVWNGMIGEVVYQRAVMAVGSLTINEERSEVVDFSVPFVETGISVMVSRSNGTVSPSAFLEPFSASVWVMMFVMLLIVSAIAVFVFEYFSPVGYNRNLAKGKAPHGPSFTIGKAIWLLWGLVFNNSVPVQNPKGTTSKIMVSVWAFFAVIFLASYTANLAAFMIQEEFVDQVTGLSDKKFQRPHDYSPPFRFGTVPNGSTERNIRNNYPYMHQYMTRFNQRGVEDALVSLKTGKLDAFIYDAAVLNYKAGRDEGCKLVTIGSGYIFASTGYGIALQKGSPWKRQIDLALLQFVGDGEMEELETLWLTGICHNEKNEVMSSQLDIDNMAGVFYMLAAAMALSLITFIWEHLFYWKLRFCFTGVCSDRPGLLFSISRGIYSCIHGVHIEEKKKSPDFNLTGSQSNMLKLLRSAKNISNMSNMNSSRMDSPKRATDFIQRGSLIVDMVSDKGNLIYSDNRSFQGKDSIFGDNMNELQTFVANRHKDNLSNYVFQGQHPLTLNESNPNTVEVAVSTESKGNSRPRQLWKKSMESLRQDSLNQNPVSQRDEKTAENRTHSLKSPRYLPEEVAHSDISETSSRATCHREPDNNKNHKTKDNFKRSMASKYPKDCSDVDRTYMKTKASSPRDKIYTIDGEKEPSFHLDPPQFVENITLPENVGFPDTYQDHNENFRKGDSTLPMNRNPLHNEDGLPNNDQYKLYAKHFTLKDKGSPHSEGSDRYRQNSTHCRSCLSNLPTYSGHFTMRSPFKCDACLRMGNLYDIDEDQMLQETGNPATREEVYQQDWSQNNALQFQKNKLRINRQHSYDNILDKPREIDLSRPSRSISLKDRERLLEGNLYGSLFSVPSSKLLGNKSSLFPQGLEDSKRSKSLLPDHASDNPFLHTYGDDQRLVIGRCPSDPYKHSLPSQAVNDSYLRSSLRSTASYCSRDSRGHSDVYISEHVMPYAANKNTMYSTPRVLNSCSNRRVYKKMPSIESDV
T5 sequence (Q00960+Q00959 fused with the stated changes, other chains not shown): as the sequence (Q00960+Q00959 fused with the stated changes, other chains not shown) above
Source text: as §1

[9] = test system: non-tagged purely di-heteromeric GluN2B-G689C; conditions: purely variant di-heteromers, previous observations; cited from earlier work
[10] = test system: NMDAR-dependent currents in cultured hippocampal neurons (naive or overexpressing GluN2B-wt, GluN2B-G689C, GluN2B-G689S); experiment: Whole cell patch clamp of primary cultured hippocampal neurons; type: cell-based, rat
Procedure: Cultures of hippocampal primary neurons were established as previously stated. Briefly, extracted rat neonates (P0) hippocampi were dissociated and plated onto 12 mm poly-D-lysine (Sigma-Aldrich, Cat. #P6407)- treated glass coverslips. Cultures were then maintained in an enriched growth media and grown at 37 °C and 5% CO2. Following five days in-vitro (DIV), growth medium was supplemented with 4 μM cytosine-arabinoside (ARA-C) to suppress glia proliferation. At nine DIV, neurons were co-transfected using the calcium-phosphate method with 2 different plasmids: 0.3 μg DNA of eYFP and 2 μg GluN2B-wt or GluN2B-G689C or GluN2B-G689S. To avoid recordings from cells transfected only with the fluorescent reporter, the ratio between the different plasmids during co-transfection favored the plasmids encoding GluN2B-wt/G689C/G689S. Recordings were performed four to seven days past transfection.
We patched YFP-positive neurons at 13–18 DIV. YFP was excited by X-Cite LED illuminator (Excelitas Technologies). Electrode were made by pulling glass capillaries to resistance of 5–10 MΩ. Electrodes were filled with an intracellular solution containing (in mM): 135 K-gluconate, 10 NaCl, 10 HEPES, 2 MgCl2, 2 Mg^2+-ATP, 1 EGTA, pH adjusted to 7.3 with KOH. Patch-clamp recordings were performed with Axon MultiClamp 700B amplifier and Axon Digidata 1440A acquisition system. In all experiments, recordings were performed using a 10 kHz sampling rate and low pass filter. Neurons were clamped at (-70) mV. […] Cells were recorded for ~ 3 min. For assessing the total NMDAR-dependent current (Imax), neurons were then perfused with extracellular solution (see above) supplemented with 100 μM of NMDA (Alomone labs, Cat #: N-170) for exclusive activation of NMDARs. Potentiation was assessed by perfusing cells with the extracellular solution along with 100 μM NMDA and 100 μM of PS (Cat. #P162) in 0.2% DMSO. […] Cells that didn’t reach steady-state after application of 100 μM NMDA were excluded from analysis. Extent of potentiation by PS was evaluated at steady-state.

[11] = target: T6, Purely di-heteromeric GluN2B-G689C (C1/C2) (Rattus norvegicus, UniProt P35439+Q00959+Q00960, A876H/F846L/G689C/G856D/H848F/K857R/M851T/M860L/Q845K/V861L); experiment: TEVC in Xenopus oocytes; type: cell-based
T6 construct: expressed in transfected cells; host or cells: Xenopus laevis oocytes, mRNA injection
Source text: as §1

[12] = target: T7, Purely di-heteromeric GluN2B-G689S (C1/C2) (Rattus norvegicus, UniProt P35439+Q00959+Q00960, A876H/F846L/G689S/G856D/H848F/K857R/M851T/M860L/Q845K/V861L); experiment: TEVC in Xenopus oocytes; type: cell-based
T7 construct: expressed in transfected cells; host or cells: Xenopus laevis oocytes, mRNA injection
Source text: as §1

[13] = test system: GluN2C- and GluN2D-containing di-heteromers; conditions: cited from earlier work
[14] = target: T8, Purely wt or mixed di-heteromeric receptors containing GluN2B-subunits (Rattus norvegicus, UniProt P35439+Q00959+Q00960, A876H/F846L/G856D/H848F/K857R/M851T/M860L/Q845K/V861L); experiment: TEVC in Xenopus oocytes, wt and mixed di-heteromers; type: cell-based; conditions: 100 µM PS
T8 construct: expressed in transfected cells; host or cells: Xenopus laevis oocytes, mRNA injection
Source text: as §1

GABAA receptor = test system: GABAA receptor; parameters: method as in PMID 34339523; conditions: cited from earlier work
all NMDAR-subtypes = test system: all NMDAR-subtypes; parameters: method as in PMID 24174662; conditions: cited from earlier work
GABAA receptors = test system: GABAA receptors; parameters: method as in PMID 24174662; conditions: cited from earlier work
[15] = target: di- or tri-heteromeric NMDA receptors (Rattus norvegicus, UniProt P35439+Q00959+Q00960, A876H/F846L/G856D/H848F/K857R/M851T/M860L/Q845K/V861L); conditions: 0.1-10 μM olanzapine, 5 mM glutamate, 100 μM glycine
Source text: as §1

[16] = test system: synaptic NMDARs in cultured hippocampal neurons; experiment: Fraction of extrasynaptic NMDARs with MK-801, hippocampal neurons; type: cell-based, rat; conditions: 1 μM MK-801 10 min, 100 μM NMDA
Procedure: Evaluation of the fraction of extrasynaptic NMDARs was done as previously described. Briefly, neurons were initially perfused with extracellular solution (see above) supplemented with 100 μM of NMDA to assess the total (synaptic and extrasynaptic) NMDAR-dependent current. Subsequently, the 100 μM of NMDA was thoroughly washed for 2 min (to refrain from activation of NMDAR by remaining NMDA), then neurons were perfused with the extracellular solution supplemented with 1 μM MK-801 for 10 min to exclusively block synaptic receptors (which are activated by action-potential independent miniature neurotransmission). Extrasynaptic NMDAR-dependent currents were then measured by washing the cells from excess MK-801 for 2 min followed by a second application of 100 μM NMDA. Evaluation of the fraction of the extrasynaptic NMDARs was done by dividing the maximal current remaining after MK-801 application by the current obtained before the MK-801 treatment.

[17] = test system: GluN2B-G689C and GluN2B-G689S variant receptors; parameters: method as in PMID 34212862, PMID 37369021; conditions: cited from earlier work
GluN2B di-heteromers = test system: GluN2B di-heteromers; parameters: method as in PMID 29682629; conditions: 2.5 μM ifenprodil; cited from earlier work
[18] = test system: tri-heteromers (GluN2A/GluN2B); parameters: method as in PMID 29682629; conditions: 2.5 μM ifenprodil; cited from earlier work
[19] = test system: GluN2A-containing di-heteromers; parameters: method as in PMID 29682629; conditions: 2.5 μM ifenprodil; cited from earlier work

## NCCCNCCCCNCCCN [Spermine, spermine]
[1]; 200 μM spermine, pH 7.3
  Spermine Potentiation (Fold change): 1.78 ± 0.51 (N = 2, n = 20) Fold change
[2]
  response to spermine: inhibited
[3]; 200 μM spermine, pH 7.3
  Spermine Potentiation (Fold change): 0.75 ± 0.02 n.s (N = 2, n = 19) Fold change
[4]; 200 μM spermine, pH 7.3
  Spermine Potentiation (Fold change): 0.70 ± 0.03 n.s (N = 1, n = 10) Fold change
[5]; 200 μM spermine, pH 7.3
  Spermine Potentiation (Fold change): 0.73 ± 0.02 (N = 2, n = 12) Fold change
[6]; 200 μM spermine, pH 7.3
  Spermine Potentiation (Fold change): 1.61 ± 0.03 (N = 2, n = 24) Fold change
[7]; 200 μM spermine, pH 7.3
  Spermine Potentiation (Fold change): 1.97 ± 0.56 (N = 3, n = 25) Fold change
[8]; 200 μM spermine, pH 7.3, 5 mM glutamate
  response to spermine: non-responsive
[8]; all tri-heteromers examined, 200 μM spermine
  inhibition by spermine (fold): 0.75 fold
[9]
  response to spermine: poorly responsive

## pregnenolone-sulfate [PS]
[1]; 100 μM PS
  PS Potentiation (Fold change): 2.78 ± 0.15 n.s. (N = 3, n = 13) Fold change
[3]; 100 μM PS
  PS Potentiation (Fold change): 2.02 ± 0.06 n.s (N = 2, n = 13) Fold change
[4]; 100 μM PS
  PS Potentiation (Fold change): 2.12 ± 0.10 n.s (N = 3, n = 13) Fold change
[10]; 100 μM PS with 100 μM NMDA, 50 μM glycine, all groups
  effect of PS on Imax: increased Imax of neurons from all groups
[10]; 100 μM PS, no NMDA added
  effect of PS on NMDAR-current without added NMDA: enhanced the overall NMDAR-current
[10]; 100 μM PS, neurons overexpressing the variants vs naive or GluN2B-wt
  extent of potentiation (fold) by PS: significantly larger
[5]; 100 μM PS
  PS Potentiation (Fold change): 1.87 ± 0.04 (N = 4, n = 30) Fold change
[11]; 100 µM PS
  potentiation by PS (fold increase): ~ fourfold
[11]; 100 μM PS, 5 mM glutamate
  PS Potentiation (Fold change): 3.96 ± 0.14 (N = 3, n = 18) Fold change
[6]; 100 μM PS
  PS Potentiation (Fold change): 2.99 ± 0.10 n.s (N = 3, n = 20) Fold change
[7]; 100 μM PS
  PS Potentiation (Fold change): 3.03 ± 0.13 (N = 3, n = 16) Fold change
[12]; 100 µM PS
  potentiation by PS (fold increase): ~ fivefold
[12]; 100 μM PS, 5 mM glutamate
  PS Potentiation (Fold change): 4.68 ± 0.19 (N = 3, n = 23) Fold change
[13]
  mode of action of PS: negative allosteric modulator (NAM)
[8]; 100 µM PS, all tri-heteromeric types, wt or GluN2B variants
  potentiation by PS (fold increase): ~ twofold
[14]
  potentiation by PS (fold increase): ~ threefold
GABAA receptor
  mode of action of PS: negative allosteric modulator (NAM)

## CC(C)[C@@H](O)CC[C@@H](C)[C@H]1CC[C@H]2[C@@H]3CC=C4C[C@@H](O)CC[C@]4(C)[C@H]3CC[C@]12C [24(S)-HC, 24(S)-hydroxycholesterol]
All NMDAR-subtypes
  potentiation by 24(S)-HC: can potentiate all NMDAR-subtypes alike
GABAA receptors
  effect of 24(S)-HC: no known effect

## Cc1cc2c(s1)Nc1ccccc1N=C2N1CCN(C)CC1 [olanzapine]
[15]
  direct effect of olanzapine on NMDAR currents: no evidence for any direct effect

## C[C@]12N[C@H](Cc3ccccc31)c1ccccc12 [MK-801]
[16]; neurons overexpressing GluN2B-wt
  extrasynaptic fraction (current remaining after MK-801): 38%
[16]; neurons overexpressing the variants
  fraction of remaining current after MK-801: ~ 50%
[17]
  block by MK-801: efficiently and potently blocks both variant receptors

## CC(C(O)c1ccc(O)cc1)N1CCC(Cc2ccccc2)CC1 (stereo not drawn) [ifenprodil]
GluN2B di-heteromers
  expected inhibition by ifenprodil: ~ 85%
[18]
  expected inhibition by ifenprodil: < 40%
[19]
  expected inhibition by ifenprodil: < 10%
